{"source": "patent US20220016079A1", "about": "“COMBINATION TREATMENT OF HIV INFECTIONS” (priority 2018, published 2022)", "key": {"[1]": {"test_system": "CD4+ T cell line JLat 10.6", "test": "Cellular cytotoxicity (LDH assay and CellTiter Glo assay)", "type": "cell-based, human", "conditions": "even at high concentration (20 μM), 72 h", "method": "(§1) This experiment examined the cellular cytotoxicity of DEB10-1143 alone and DEB10-1143+ART on the human CD4+ T cell line JLat 10.6. DEB10-1143 was tested as well on human primary CD4+ T lymphocytes. Drug titration and kinetic studies were conducted.\n(§2) Method: Cells (100,000 cells/100 μL) were treated in triplicate for 72 h with increasing concentrations of DEB10-1143 (0 to 20 μM) used alone or in combination with ART (20 μM TDF, 10 μM FTC and 1 μM Raltegravir). ART and DEB10-1143 were added simultaneously to cells. Saponin (0.5%) was used as positive control due to its ability to induce cell death.\n(§3) Cellular cytotoxicity was analyzed by Lactate dehydrogenase (LDH) assay and CellTiter Glo assay.\n(§4) LDH assay: LDH is an oxidoreductase enzyme that catalyses the interconversion of pyruvate and lactate. Cells release LDH into the bloodstream after tissue damage or red blood cell hemolysis. […] In this particular assay, LDH reduces NAD to NADH, which is specifically detected by colorimetric (490 nm) assay.\n(§5) CellTiter Glo assay: The CellTiter-Glo® 2.0 Assay determines the number of viable cells in culture by quantifying ATP, which indicates the presence of metabolically active cells. Luminescence readout is directly proportional to the number of viable cells in culture. Data are expressed in luminescence (RLU) in triplicate"}, "[2]": {"test_system": "primary CD4+ T-lymphocytes", "test": "Cellular cytotoxicity (LDH assay and CellTiter Glo assay)", "type": "cell-based, human", "conditions": "even at high concentration (20 μM), 72 h", "method": "as §1, §2, §3, §4, §5"}}}
{"compound": "CN[C@@H](C)C(=O)N[C@H]1CN(C(=O)CC(C)C)CC[C@H]2CC[C@@H](C(=O)NC(c3ccccc3)c3ccccc3)N2C1=O", "note": "[Debio 1143, (5S,8S,10aR)-N-benzhydryl-5-((S)-2-(methylamino)propanamido)-3-(3-methylbutanoyl)-6-oxodecahydropyrrolo[1,2-a][1,5]diazocine-8-carboxamide]", "values": [{"measurement": "cytotoxicity", "setting": "[1]", "value": "no significant cytotoxicity"}, {"measurement": "cytotoxicity", "setting": "[2]", "value": "no significant cytotoxicity"}]}
